# According to US20100285139A1, “PHARMACEUTICAL COMPOSITION FOR THE PROPHYLAXIS AND/OR SYMPTOMATIC TREATMENT OF CYSTIC FIBROSIS” (CYCNAD GMBH & CO., KG, priority 2007, published 2010):
# How the values were obtained:
# acid sphingomyelinase = target: T1, acid sphingomyelinase (Mus musculus, UniProt Q04519); experiment: Activity of acid sphingomyelinase in lung extracts of treated mice; format: in vivo
# T1 construct: from tissue; host or cells: lung homogenate of wild-type and Cftr-deficient mice
# T1 sequence (Q04519 45-627): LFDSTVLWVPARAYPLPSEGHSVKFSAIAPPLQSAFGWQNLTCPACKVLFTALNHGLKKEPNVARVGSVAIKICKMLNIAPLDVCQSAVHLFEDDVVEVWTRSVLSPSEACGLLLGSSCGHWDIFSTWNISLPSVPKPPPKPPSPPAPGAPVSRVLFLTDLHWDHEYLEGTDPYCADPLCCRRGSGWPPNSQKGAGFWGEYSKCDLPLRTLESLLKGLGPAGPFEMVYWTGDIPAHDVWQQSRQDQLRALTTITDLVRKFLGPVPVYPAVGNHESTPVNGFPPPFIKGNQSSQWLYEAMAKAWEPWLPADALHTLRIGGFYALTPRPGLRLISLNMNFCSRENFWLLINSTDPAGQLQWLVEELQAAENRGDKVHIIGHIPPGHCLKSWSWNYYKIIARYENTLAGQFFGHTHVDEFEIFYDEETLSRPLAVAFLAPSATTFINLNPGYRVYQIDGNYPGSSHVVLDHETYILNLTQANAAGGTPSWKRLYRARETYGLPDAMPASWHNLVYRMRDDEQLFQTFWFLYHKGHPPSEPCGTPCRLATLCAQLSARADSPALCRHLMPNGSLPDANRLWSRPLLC
# Protocol: The inhalation was carried out with the aid of an inhaler (Pariboy® SX). The liquid reservoir in this inhaler was connected to an air nozzle, whereby it was possible to produce a fine aerosol which was inhaled through a mask by the mice. For this, the noses of the experimental animals were pressed manually into the opening of the mask for 10 minutes. This permitted excellent control of the inhalation process. All mice were subjected to an inhalation process 3 times at an interval of 12 hours. The lungs were shock-frozen, homogenized under liquid nitrogen and subsequently transferred to a buffer of 250 mM sodium acetate (pH 5.0), 1.3 mM EDTA and 1% NP40. The homogenizate was then subjected to ultrasound treatment (ultrasonic processor tip sonicator) a total of three times. Subsequently, an aliquot of the samples was diluted with 250 mM sodium acetate (pH 5.0), 1.3 mM EDTA 0.1% NP40 and incubated with 0.05 μCi of [^14C]sphingomyelin per sample (52 mCi/mmol; […] The radioactive sample of [^14C]sphingomyelin was dried, resuspended in 250 mM sodium acetate (pH 5.0), 1.3 mM EDTA and 0.1% NP40 and subsequently subjected to ultrasound treatment for 10 minutes, before it was added to the homogenized samples. The samples were incubated for 30 minutes in total at about 37° C. Subsequently, the enzymatic reaction was ended by extraction (extraction with a solvent mixture of chloroform and methanol in the volume ratio chloroform/methanol 2:1). The samples were then centrifuged and an aliquot of the aqueous phase was in each case subjected to scintillation counting to determine the release of [^14C]phosphorylcholine from [^14C] sphingomyelin. Wild-type mice and Cftr-deficient mice (Cftr-knockout mice) inhaled a solution of 4 mg/l of amitriptyline, 12.5 mg/l of trimipramine, 9 mg/l of desipramine, 8 mg/l of chlorprothixene, 4.5 mg/l of fluoxetine, 5 mg/l of amlodipine and 35 mg/l of sertraline. All substances were dissolved in water or DMSO for this and subsequently diluted at least 1:100 (for DMSO: at least 1:1000) in 0.9% sodium chloride solution. The mice inhaled the solutions for 10 minutes. An inhaler (Pariboy®) was used for the inhalation. In the course of the inhalation time, approximately 2 ml of the solutions administered were atomized. The inhalation was carried out a total of three times at intervals of 12 hours. The lungs were removed 60 minutes after the last inhalation, and the activity of the acid sphingomyelinase was determined in the lung extracts. Wild-type mice and Cftr-deficient mice were in each case inhaled 1 ml of an amitriptyline solution (4 mg/l of H2O) for 20 minutes with the aid of a customary pharmacy inhalation device. The amount of amitriptyline actually administered was therefore about 4 μg. In parallel to this, other wild-type mice and Cftr-deficient mice were in each case administered 100 μl of an amitriptyline solution (2.5 g/l of H2O), so that the amount of amitriptyline actually administered in these animals was 250 μg. The injections were administered twice daily over 2 days. In the case of the inhalative treatment, the lungs of the mice were extracted 60 minutes or 12 hours after ending the inhalation, where in the case of the 12-hour experiments the inhalation was repeated after 6 hours. In the case of the mice treated by an injection solution, their lungs were removed 12 hours after the last injection.
# ceramide = experiment: Pulmonary ceramide concentration in lung extracts of treated mice; format: in vivo
# Protocol: The inhalation was carried out with the aid of an inhaler (Pariboy® SX). The liquid reservoir in this inhaler was connected to an air nozzle, whereby it was possible to produce a fine aerosol which was inhaled through a mask by the mice. For this, the noses of the experimental animals were pressed manually into the opening of the mask for 10 minutes. This permitted excellent control of the inhalation process. All mice were subjected to an inhalation process 3 times at an interval of 12 hours.
# After killing the experimental animals, the lungs were removed, homogenized under liquid nitrogen and added to a mixture of chloroform, methanol and 1N hydrochloric acid (100:100:1, v/v/v). After addition of 200 μl of H2O, the samples were centrifuged for 5 minutes (14,000 rpm, rotations per minute). The lower phase was then collected, dried and subjected to an alkaline hydrolysis of diacylglycerol in 0.1 N methanolic potassium hydroxide solution at 37° C. for 60 minutes. The samples were extracted again, and the lower phase was dried and subsequently resuspended in 20 μl of a detergent solution (7.5% (w/v) of n-octylglucopyranoside, 5 mM cardiolipin in 1 mM diethylenetriaminepentaacetic acid (DTPA)). After an ultrasound treatment (10 minutes), the samples were added to 70 μl of a reaction mixture which contained 10 μl of diacylglycerol kinase (GE Healthcare Europe, Munich, Germany), 0.1 M imidazole/HCl (pH 6.6), 0.2 mM diethylenetriaminepentaacetic acid (pH 6.6), 70 mM sodium chloride, 17 mM magnesium chloride, 1.4 mM EGTA, 2 mM DTT, 1 μM ATP and 10 μCi of [^32P]γATP. The kinase reaction was carried out for 30 minutes at room temperature and subsequently ended by addition of 1 ml of chloroform:methanol:1 N HCl (100:100:1, v/v/v), 170 μl of buffered saline solution (135 mM sodium chloride, 1.5 mM calcium chloride, 0.5 mM magnesium chloride, 5.6 mM glucose, 10 mM HEPES, pH 7.2) and 30 μl of a 100 mM EDTA solution. The samples were then vortexed and the resulting phases were separated. […] The incorporation of [^32P] in ceramide was quantified by means of liquid scintillation counting, since the spots […]. The amounts of ceramide were determined by comparison with a standard curve using C16-ceramide as substrate.
# (§1) Wild-type mice and Cftr-deficient mice were inhaled with a solution of 4 mg/l of amitriptyline, 12.5 mg/l of trimipramine, 9 mg/l of desipramine, 8 mg/l of chlorprothixene, 4.5 mg/l of fluoxetine, 5 mg/l of amlodipine and 35 mg/l of sertraline. […] The lungs were removed from the experimental animals 60 minutes after the inhalation, and the pulmonary ceramide concentration in the lung extracts was determined. […]
# Pseudomonas aeruginosa = experiment: Susceptibility to infection: Pseudomonas aeruginosa bacterial count in the lung after intranasal infection; format: in vivo, mice
# Protocol: The bacteria were cultured for 14 to 14.5 hours on TSA agar plates (Becton Dickinson). Fresh plates were used for at most 2 weeks for this. The bacteria were then transferred to Erlenmeyer flasks in 40 ml of a prewarmed and sterile buffer (TSB, Becton Dickinson). The optical density (OD) or extinction was adjusted to 0.225 (corresponds to 5.5×10^8 CFU/ml) and the bacteria were incubated for 60 minutes at 37° C. with shaking at 125 rpm. The quality of the agar plates and of TSB and the shaking speed were crucial for the obtainment of reproducible results. In this way, it was possible to obtain a Pseudomonas aeruginosa population exactly in the early log phase (the bacteria replicated approximately by 10-fold within an incubation time of 60 minutes). The fact that the bacteria were bacteria of the early log phase was extremely important to obtain reproducible conditions for the subsequent infection with the experimental animals. The bacteria were centrifuged at 2800 rpm (1600×g) in a 50 ml tube. The supernatant was then carefully removed and the bacteria were resuspended in 10 ml of RPMI-1640, supplemented with 10 mM HEPES (pH 7.3). The suspension was transferred to a 15 ml tube and subsequently washed twice. Finally, the bacteria were resuspended in prewarmed HEPES/salt (HS; 132 mM NaCl, 20 mM HEPES (pH 7.4), 5 mM KCl, 1 mM CaCl2, 0.7 mM MgCl2, 0.8 mM MgSO4) and the bacterial optical density was determined. The bacteria were then diluted with prewarmed H/S to a concentration of 10^8 CFU/20 μl . The mice were then infected within the next 10 minutes. For this purpose, a syringe with a volume of 1 ml and a 30 gauge needle was used. The mice were anesthetized in ether for 10 to 15 seconds. Following this, the needle was immediately inserted 2 mm into the noses of the mice and the bacteria were carefully injected. Between the first and the last mouse which were infected, a time interval of at most 10 minutes was allowed to pass to avoid variations in the formation of viable bacterial colonies in this way. […] Subsequently, the number of bacteria in the lung was measured as a measure of the sensitivity of the mice to developing a Pseudomonas aeruginosa infection. […] The bacterial colonies were counted after 15 hours growth at 37° C. as a measure of the number of pulmonary bacteria and thus as a measure of an infection.
# as §1, with “susceptibility to infection of the experimental animals” for “pulmonary ceramide concentration”, “relation to Pseudomonas aeruginosa” for “the lung extracts”
compound,measurement,setting,value
CN(C)CCC=C1c2ccccc2CCc2ccccc21 [amitriptyline],enzyme activity of acid sphingomyelinase in lung extracts,"acid sphingomyelinase; Cftr-deficient mice, 12 h after intraperitoneal injection of 250 micrograms, twice daily over 2 days",151±17 pmol/min/mg of protein
same,enzyme activity of acid sphingomyelinase in lung extracts,"acid sphingomyelinase; Cftr-deficient mice, lungs extracted 60 min after inhalation of 1 ml amitriptyline solution (4 mg/l)",148±17 pmol/min/mg of protein
same,enzyme activity of acid sphingomyelinase in lung extracts,"acid sphingomyelinase; Cftr-deficient mice, lungs extracted 12 h after inhalation of 1 ml amitriptyline solution (4 mg/l)",167±9 pmol/min/mg of protein
same,enzyme activity of acid sphingomyelinase in lung extracts,"acid sphingomyelinase; wild-type mice, 12 h after intraperitoneal injection of 250 micrograms, twice daily over 2 days",168±19 pmol/min/mg of protein
same,enzyme activity of acid sphingomyelinase in lung extracts,"acid sphingomyelinase; wild-type mice, lungs extracted 60 min after inhalation of 1 ml amitriptyline solution (4 mg/l)",176±18 pmol/min/mg of protein
same,enzyme activity of acid sphingomyelinase in lung extracts,"acid sphingomyelinase; wild-type mice, lungs extracted 12 h after inhalation of 1 ml amitriptyline solution (4 mg/l)",200±14 pmol/min/mg of protein
same,ceramide concentration in lung extracts,"ceramide; Cftr-deficient mice, 12 h after inhalation of 1 ml amitriptyline solution (4 mg/l)",5.2±0.79 pmol/μg of protein
same,ceramide concentration in lung extracts,"ceramide; Cftr-deficient mice, parenterally treated, 12 h after intraperitoneal injection of 250 micrograms",4.9±0.7 pmol/μg of protein
same,ceramide concentration in lung extracts,"ceramide; wild-type mice, 12 h after inhalation of 1 ml amitriptyline solution (4 mg/l)",1.6±0.3 pmol/μg of protein
same,ceramide concentration in lung extracts,"ceramide; wild-type mice, parenterally treated, 12 h after intraperitoneal injection of 250 micrograms",1.5±0.4 pmol/μg of protein
same,bacterial count in the lungs,"Pseudomonas aeruginosa; Cftr-deficient mice, treated by inhalation (4 mg/l solution), 2 h after intranasal infection with 1×10^8 CFU P. aeruginosa strain 762",12300±4075 CFU
same,bacterial count in the lungs,"Pseudomonas aeruginosa; Cftr-deficient mice, treated by injection solution (250 micrograms i.p.), 2 h after intranasal infection",11250±2360 CFU
same,bacterial count in the lungs,"Pseudomonas aeruginosa; wild-type mice, treated by inhalation (4 mg/l solution), 2 h after intranasal infection with 1×10^8 CFU P. aeruginosa strain 762",3600±2892 CFU
same,bacterial count in the lungs,"Pseudomonas aeruginosa; wild-type mice, treated by injection solution (250 micrograms i.p.), 2 h after intranasal infection",2780±1740 CFU
